Reference: patent US20230013304A1, “N2-ARYLMETHYL-4-HALOALKYL-PYRIDAZIN-3-ONE CFTR MODULATORS FOR THE TREATMENT OF CYSTIC FIBROSIS” (UNIVERSITE DE REIMS CHAMPAGNE-ARDENNE, priority 2019, published 2023)

System: CFTR channel
Test: CFTR-dependent halide transport, YFP-H148Q/I152L fluorescent probe (Premo Halide Sensor kit) in osteoblasts
Format: cell-based
Settings: for restoration of the CFTR channel activity: on average, compared with reference substances (Ivacaftor, Lumacaftor, Orkambi)
Experimental: To evaluate the action of the compounds according to the invention on the restoration of CFTR activity, said compounds were tested in vitro using a suitable Premo Halid Sensor kit (Invitrogen).
The transport of CFTR-dependant chloride ions is thus first evaluated in osteoblasts with the use of a fluorescent probe (halide-sensitive yellow fluorescent protein (YFP)-H148Q/I152 L protein (Life Technologies, Saint Aubin, France)) (FIG. 1).
48 h after transfection of the probe into the cell, CFTR channel activity is stimulated using a solution composed of forskolin, 3-isobutyl-1-methylxanthine and apigenine (each component in a concentration of 10 μM). An iodine solution (140 mM) was then added and the fluorescence was recorded using a plate reader (400 ms/point; Ft) over a period of 60 s (baseline; F0). The decrease in the Ft/F0 ratio represents the restoration of chloride activity of the CFTR channel.
For quantitative analyses, the gradients of the signals obtained are processed in non-linear regressions and correlated to the level of conductance of chloride ions.

COc1ccc(-c2cc(C(F)(F)F)c(=O)n(Cc3ccccc3)n2)cc1OC [Compound 1, 2-benzyl-6-(3,4-dimethoxyphenyl)-4-(trifluoromethyl)pyridazin-3(2H)-one]
restoration of CFTR channel activity compared with Ivacaftor and Lumacaftor (osteoblasts, FIG. 1): better restoration of CFTR channel activity than those obtained with Ivacaftor and Lumacaftor | restoration of CFTR channel activity compared with Orkambi (osteoblasts, FIG. 1): restoration of CFTR channel activity similar to that obtained with Orkambi | restoration of the CFTR channel activity (osteoblasts, FIG. 1): 150%

COc1ccc(Cn2nc(-c3ccc(OC(F)F)c(OC)c3)cc(C(F)(F)F)c2=O)cc1 [Compound 4, 6-(4-(difluoromethoxy)-3-methoxyphenyl)-2-(4-methoxybenzyl)-4-(trifluoromethyl)pyridazin-3(2H)-one]
restoration of CFTR channel activity compared with Ivacaftor and Lumacaftor (osteoblasts, FIG. 1): better restoration of CFTR channel activity than those obtained with Ivacaftor and Lumacaftor | restoration of the CFTR channel activity (osteoblasts, FIG. 1): 150%

CFTRinh-172 [reference compound]
decrease in fluorescence (Ft/F0) in the presence of the inhibitor (CFTRinh-172 10 μM, untreated osteoblasts, control): no decrease in fluorescence was observed
